# In patent US9624243B2, “Heterocyclic compounds and methods of their use” (Novartis AG, priority 2012, dated 2017):
# Tests used:
# NG108-15 neurite cells = test: AT2 Receptor Neurite Outgrowth Assay; format: cell-based; details: NG108-15 cells, in the presence of angiotensin II 0.1 μM, compound 0.003-10 μM
# Protocol: The general methodology of Wallinder (2008) and references cited therein was used to assess the effect of the compounds of the present invention on neurite outgrowth. The assay was adapted for high content screening.
# EMA1087 is a known AT2 receptor agonist described as “compound 21” in Wan et al. 2004. PD-123,319 is a known, commercially available AT2 receptor antagonist. The results were analyzed by immunofluorescence quantitative analysis. Neurite outgrowth was quantified with neurite average length using Cellomics software. Results are expressed as the mean±SEM, each conducted in triplicate. Statistical significance, compared with Ang II control: *p<0.05, **p<0.01, and ***p<0.001. NS: no significant difference. ND: not determined. FIGS. 1 to 5 show neurite outgrowth was inhibited by the AT2 receptor antagonists, PD-126,055 and compounds 6, 15, 21 and 28.
# AT2 receptor = AT2 receptor (Homo sapiens (Human), UniProt P50052); test: AT2 Receptor Binding; details: HEK293 AT2 receptor transient cell membranes, [125I]-CGP42112A
# AT2 receptor, sequence (P50052 whole entry, species assumed): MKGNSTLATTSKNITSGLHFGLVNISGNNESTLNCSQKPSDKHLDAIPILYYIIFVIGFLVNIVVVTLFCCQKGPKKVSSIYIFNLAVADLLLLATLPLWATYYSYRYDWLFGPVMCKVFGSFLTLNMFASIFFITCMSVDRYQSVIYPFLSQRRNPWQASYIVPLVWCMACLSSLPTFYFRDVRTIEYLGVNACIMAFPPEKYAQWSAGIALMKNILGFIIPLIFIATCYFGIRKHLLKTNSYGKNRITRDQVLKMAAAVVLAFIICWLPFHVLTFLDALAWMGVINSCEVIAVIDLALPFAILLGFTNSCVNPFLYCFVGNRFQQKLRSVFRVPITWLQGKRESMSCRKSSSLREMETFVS
# Protocol: 1. Trypsin-EDTA (for Preparation of 100 mL)
# • Dissolve trypsin in 2% EDTA and PBS completely; sterilize the solution by passing through a […] membrane filter; store at 4° C.
# 2. DMEM Medium (for Preparation of 1 L) • The powder was dissolved into 950 mL of distilled water with gentle stirring until the solution becomes clear. • Add. NaHCO3 1.176 g for DMEM medium. • Adjust pH of medium to 0.2˜0.3 below final working pH using 1 M NaOH or 1 M • HCl. Add slowly with stirring. • Dilute to 1 liter with ddH2O. • Sterilize the medium immediately by filtration. • Store at 4° C.
# 3. TE Buffer • 20 mM Tris-HCl, pH 7.4, • 5 mM EDTA
# 4. Binding Assay Buffer • 50 mM Hepes, pH 7.4 • 5 mM MgCl2 • 1 mM CaCl2 • 0.2% BSA
# 5. Wash Buffer • 50 mM Hepes, pH 7.4 Procedures for HEK293AT2 Receptor Transient Cell Transfection • Cells were plated into 150 mm dish at 50% density for transient transfection. Cells were ready for transfection after overnight incubation (the confluence reaches around 80%). • 75 μL Lipofectamine™2000 diluted in 6.25 mL OptiMEM I Reduced Serum Medium, was mixed gently, and incubated at room temperature for 5 minutes. 50 μg expression plasmid DNA diluted in 6.25 mL OptiMEM I Reduced Serum Medium without serum was mixed gently. • After the 5 minute incubation, the diluted DNA was combined with the diluted Lipofectamine™2000 (total volume is 12.5 mL). The mixture was mixed gently and incubated for 30 minutes at room temperature to allow the DNA-Lipofectamine™2000 complexes to form. • The 12.5 mL DNA-Lipofectamine™2000 complexes were added into the 150 mm dish and mixed gently by rocking the dish back and forth. • The cells were incubated at 37° C. with 5% CO2 for 48 hours. Cells were collected and stored frozen at −80° C. Procedures for HEK293AT2 Receptor Cell Membrane Preparation • Frozen HEK293AT2 receptor (transient transfected) cells were homogenized in ice cold TE buffer for 10s. • The homogenate was centrifuged at 25,000 g for 30 minutes. • The pellet was resuspended in ice cold tissue buffer. • Protein concentrations were determined using Bradford assay method with BSA as standard. • The membrane protein was frozen under −80° C. Compound Preparation
# Solutions of all compounds were prepared bymicroplate liquid handling equipment such as Janus or Precision 2000. Compounds, dissolved in DMSO were stored in a Freezer. Compounds were prepared from 30 mM in 100% DMSO.
# Step 1: Dose Plate Preparation (96 Well Plate)
# • Add the 3 μL [30 mM] compound stock to column 1 on the plate. • Add 15 μL of 100% DMSO to column 1. • Add 10.81 μL of 100% DMSO to column 2-12. • Transfer 5 μL from column 1 into column 2 (half log dilution). • Transfer 5 μL from column 2 into column 3 (half log dilution). • Transfer 5 μL from column 3 into column 4 (half log dilution). • Transfer 5 μL from column 4 into column 5 (half log dilution). • Transfer 5 μL from column 5 into column 6 (half log dilution). • Transfer 5 μL from column 6 into column 7 (half log dilution). • Transfer 5 μL from column 7 into column 8 (half log dilution). • Transfer 5 μL from column 8 into column 9 (half log dilution). • Transfer 5 μL from column 9 into column 10 (half log dilution) • Transfer 5 μL from column 10 into column 11 (half log dilution) • Transfer 5 μL from column 11 into column 12 (half log dilution).
# All the compounds were diluted using Precision 2000 microplate liquid handling equipment. The top concentration of compound was 5 mM with 100% DMSO.
# Step 2: Working Plate Preparation (96 Well Plate)
# • Compounds were diluted 50-fold with buffer. • 49 μL buffer was added to the well of 96 well plate. • 1 μL compound solution from dose plate was transferred to the corresponding well of working plate. • The top concentration of compound was 100 μM with 2% DMSO. Step 3: Assay Plate Preparation (96 Well Plate)
# 15 μL of compound solution was transferred from each well of working plate to the well of assay plate by Janus.
# AT1 receptor = AT1 receptor (Homo sapiens (Human), UniProt P30556); test: AT1 Receptor Binding; details: HEK293/AT1 receptor transient cell membranes, [125I]-Sar1-Ile8-Angiotensin II; top concentration tested 10 μM
# AT1 receptor, sequence (P30556 whole entry, species assumed): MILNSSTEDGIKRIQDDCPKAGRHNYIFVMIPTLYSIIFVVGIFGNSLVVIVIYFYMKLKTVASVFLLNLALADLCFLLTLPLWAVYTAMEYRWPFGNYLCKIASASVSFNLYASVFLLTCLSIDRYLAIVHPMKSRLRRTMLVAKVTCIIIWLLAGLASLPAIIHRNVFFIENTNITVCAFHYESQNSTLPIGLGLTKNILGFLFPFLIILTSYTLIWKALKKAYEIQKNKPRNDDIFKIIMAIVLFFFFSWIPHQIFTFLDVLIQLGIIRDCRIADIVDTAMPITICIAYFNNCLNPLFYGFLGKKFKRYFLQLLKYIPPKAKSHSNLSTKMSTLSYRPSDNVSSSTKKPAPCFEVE
# Description: The same media, solutions, cell procedures and compound preparation was used as for Biological Example 1 but using HEK293/AT1 Receptor Transient Cells.
IC50 (AT2 receptor) [nM],Compound,neurite outgrowth (neurite average length) (NG108-15 neurite cells),IC50 (AT1 receptor) [nM],Ki (AT1 receptor) [nM]
86.9,"O=C(O)[C@@H]1C[C@H](N2CCOC[C@@H]2Cc2ccccc2)CN1C(=O)C(c1ccccc1)c1ccccc1 [Compound 28, (2S,4S)-4-((S)-3-benzylmorpholino)-1-(2,2-diphenylacetyl)pyrrolidine-2-carboxylic acid]",inhibited,,
2530,"O=C(O)[C@@H]1C=C(c2sccc2-c2ccccc2)CN1C(=O)C(c1ccccc1)c1ccccc1 [Compound 139, (S)-1-(2,2-diphenylacetyl)-4-(3-phenylthiophen-2-yl)-2,5-dihydro-1H-pyrrole-2-carboxylic acid]",,,
20.5,CN(CCOc1ccc(F)cc1)[C@H]1C[C@@H](C(=O)O)N(C(=O)C(c2ccccc2)c2ccccc2)C1 [Compound 126],,,
,"COc1ccc2c(c1OCc1ccccc1)C[C@@H](C(=O)O)N(C(=O)C(c1ccccc1)c1ccccc1)C2 [PD-126,055, reference compound]",inhibited,> 10000,> 10000
3970,"O=C(O)[C@@H]1C[C@H](OC[C@@H]2C[C@@H]2c2ccccc2)CN1C(=O)C(c1ccccc1)c1ccccc1 (mixture of isomers) [Compound 17, (2S,4S)-1-(2,2-diphenylacetyl)-4-(((1R,2S)-2-phenylcyclopropyl)methoxy)pyrrolidine-2-carboxylic acid and (2S,4S)-1-(2,2-diphenylacetyl)-4-(((1S,2R)-2-phenylcyclopropyl)methoxy)pyrrolidine-2-carboxylic acid]",,,
134,"COc1ccc(CCCN(C)[C@H]2C[C@@H](C(=O)O)N(C(=O)C(c3ccccc3)c3ccccc3)C2)cc1C [Compound 92, (2S,4S)-1-(2,2-diphenylacetyl)-4-((3-(4-methoxy-3-methylphenyl)propyl)(methyl)amino)pyrrolidine-2-carboxylic acid]",,,
12,"CN(CCCc1ccc(F)cc1)[C@H]1C[C@@H](C(=O)O)N(C(=O)C(c2ccccc2)c2ccccc2)C1 [Compound 91, (2S,4S)-1-(2,2-diphenylacetyl)-4-((3-(4-fluorophenyl)-propyl)(methyl)amino)pyrrolidine-2-carboxylic acid]",,,
75.8,O=C(O)[C@@H]1C[C@H](N2CCC[C@H]3CN(Cc4ccccc4)C[C@H]32)CN1C(=O)C(c1ccccc1)c1ccccc1 [Compound 84],,,
1340,"O=C(O)[C@@H]1C[C@H](N2CCCCC2Cc2ccccc2)CN1C(=O)C(c1ccccc1)c1ccccc1 (single isomer, unassigned) [Compound 70-B]",,,
1600,"O=C1NCC2(CCN([C@H]3C[C@@H](C(=O)O)N(C(=O)C(c4ccccc4)c4ccccc4)C3)CC2)C1c1ccccc1 (stereo partly drawn) [Compound 65, (2S,4S)-1-(2,2-diphenylacetyl)-4-(3-oxo-4-phenyl-2,8-diazaspiro[4,5]decan-8-yl)pyrrolidine-2-carboxylic acid]",,,
315,O=C(O)[C@@H]1C[C@H](c2ncc(-c3ccccc3)o2)CN1C(=O)C(c1ccccc1)c1ccccc1 [Compound 56],,,
386,"O=C(O)[C@@H]1C[C@H](CCOCc2ccccc2)CN1C(=O)C(c1ccccc1)c1ccccc1 [Compound 55, (2S,4R)-4-(2-(benzyloxy)ethyl)-1-(2,2-diphenylacetyl)-pyrrolidine-2-carboxylic acid]",,,

Compound,IC50 (AT2 receptor) [nM],neurite outgrowth (neurite average length) (NG108-15 neurite cells),IC50 (AT1 receptor) [nM],Ki (AT1 receptor) [nM]
"CN(CCCc1ccccc1)[C@H]1C[C@@H](C(=O)O)N(C(=O)C(c2ccccc2)c2ccccc2)C1 [Compound 21, (2S,4S)-1-(2,2-diphenylacetyl)-4-(methyl(3-phenylpropyl)amino)pyrrolidine-2-carboxylic acid]",62.1,inhibited,> 10000,> 10000
CN(C)S(=O)(=O)NC(=O)[C@@H]1C[C@H](OCCCc2ccccc2)CN1C(=O)C(c1ccccc1)c1ccccc1 [Compound 50],67.3,,,
